{"source": "patent EP0194793A2", "about": "“9-Acyl tylosin derivatives” (Omura, Satoshi, priority 1985, dated 1986)", "key": {"[1]": {"tested_on": "Micrococcus luteus KB212 (ATCC 9341)", "assay": "Minimum inhibitory concentration, nutrient agar dilution", "format": "cell-based", "method": "(§1) Experiment 1: Minimum Inhibitory Concentration (µg/ml)\n(§2) The tylosin derivatives obtained in Examples 1 through 9 were tested for their minimum inhibitory concentrations against gram-positive and gram-negative bacteria. The tests were conducted in conventional manner by inoculating varying concentrations of the test sample on a nutrient agar test medium and incubating at 37°C for 18-20 hours. The concentrations of the test samples inhibiting the bacteria growth were measured in µg per ml as a minimum inhibitory concentration."}, "[2]": {"tested_on": "Staphylococcus aureus KB-210 (ATC 65380)", "assay": "Minimum inhibitory concentration, nutrient agar dilution", "format": "cell-based", "details": "for MIC: read-out: Minimum Inhibitory Concentrations", "method": "as §1, §2"}, "[3]": {"tested_on": "Escherichia coli KB213 (NIHJ)", "assay": "Minimum inhibitory concentration, nutrient agar dilution", "format": "cell-based", "details": "37°C, 18-20 hours; for MIC: read-out: Minimum Inhibitory Concentrations", "method": "as §1, §2"}, "[4]": {"tested_on": "Klebsiella pneumoniae KB13(PCI 602)", "assay": "Minimum inhibitory concentration, nutrient agar dilution", "format": "cell-based", "details": "for MIC: read-out: Minimum Inhibitory Concentrations", "method": "as §1, §2"}, "[5]": {"tested_on": "Bacillus subtilis KB-143(IFO 3001)", "assay": "Minimum inhibitory concentration, nutrient agar dilution", "format": "cell-based", "method": "as §1, §2"}, "[6]": {"tested_on": "S. pyrogenes C203", "assay": "In vivo activity in infected mice", "method": "Experiment 2: In vivo Activity\nThe compounds obtained in Examples 2 and 4 were separately administered subcutaneously or orally to mice infected with S. pyrogenes C203. The in vivo activity was measured as ED50 (mg/kg x 2)."}, "[7]": {"details": "Micrococcus luteus KB212 (ATCC 9341), nutrient agar, 37°C, 18-20 hours"}, "[8]": {"details": "Staphylococcus aureus KB-210 (ATC 65380), nutrient agar, 37°C, 18-20 hours"}, "[9]": {"details": "Klebsiella pneumoniae KB13(PCI 602), nutrient agar, 37°C, 18-20 hours"}, "[10]": {"details": "Bacillus subtilis KB-143(IFO 3001), nutrient agar, 37°C, 18-20 hours"}}, "note": "Like-named read-outs stand apart in the source and are kept apart here."}
{"molecule": "9-0-Acetyl-9-dihydrotylosin [Example 1]", "values": [{"measurement": "Minimum Inhibitory Concentrations", "setting": "[1]; [7]", "value": "<0.1", "unit": "µg/mL"}, {"measurement": "Minimum Inhibitory Concentrations", "setting": "[2]; [8]", "value": 1.56, "unit": "µg/mL"}, {"measurement": "Minimum Inhibitory Concentrations", "setting": "[3]", "value": ">100", "unit": "µg/mL"}, {"measurement": "Minimum Inhibitory Concentrations", "setting": "[4]; [9]", "value": 100, "unit": "µg/mL"}, {"measurement": "Minimum Inhibitory Concentrations", "setting": "[5]; [10]", "value": 0.2, "unit": "µg/mL"}]}
{"molecule": "9-0-Butyryl-9-dihydrotylosin [Example 3]", "values": [{"measurement": "Minimum Inhibitory Concentrations", "setting": "[1]; [7]", "value": "<0.1", "unit": "µg/mL"}, {"measurement": "Minimum Inhibitory Concentrations", "setting": "[2]; [8]", "value": 1.56, "unit": "µg/mL"}, {"measurement": "Minimum Inhibitory Concentrations", "setting": "[3]", "value": 100, "unit": "µg/mL"}, {"measurement": "Minimum Inhibitory Concentrations", "setting": "[4]; [9]", "value": 100, "unit": "µg/mL"}, {"measurement": "Minimum Inhibitory Concentrations", "setting": "[5]; [10]", "value": 0.4, "unit": "µg/mL"}]}
{"molecule": "9-0-Propionyl-9-dihydrodemycarosyltylosin [Example 6]", "values": [{"measurement": "Minimum Inhibitory Concentrations", "setting": "[1]; [7]", "value": 0.2, "unit": "µg/mL"}, {"measurement": "Minimum Inhibitory Concentrations", "setting": "[2]; [8]", "value": 1.56, "unit": "µg/mL"}, {"measurement": "Minimum Inhibitory Concentrations", "setting": "[3]", "value": ">100", "unit": "µg/mL"}, {"measurement": "Minimum Inhibitory Concentrations", "setting": "[4]; [9]", "value": ">100", "unit": "µg/mL"}, {"measurement": "Minimum Inhibitory Concentrations", "setting": "[5]; [10]", "value": 1.56, "unit": "µg/mL"}]}
{"molecule": "9-0-Benzoyl-9-dihydrotylosin [Example 4]", "values": [{"measurement": "Minimum Inhibitory Concentrations", "setting": "[1]; [7]", "value": "<0.1", "unit": "µg/mL"}, {"measurement": "Minimum Inhibitory Concentrations", "setting": "[2]; [8]", "value": 0.78, "unit": "µg/mL"}, {"measurement": "Minimum Inhibitory Concentrations", "setting": "[3]", "value": ">100", "unit": "µg/mL"}, {"measurement": "Minimum Inhibitory Concentrations", "setting": "[4]; [9]", "value": ">100", "unit": "µg/mL"}, {"measurement": "Minimum Inhibitory Concentrations", "setting": "[5]; [10]", "value": 0.2, "unit": "µg/mL"}]}
{"molecule": "9-0-Propionyl-9-dihydrotylosin [Example 2]", "values": [{"measurement": "Minimum Inhibitory Concentrations", "setting": "[1]; [7]", "value": "<0.1", "unit": "µg/mL"}, {"measurement": "Minimum Inhibitory Concentrations", "setting": "[2]; [8]", "value": 0.78, "unit": "µg/mL"}, {"measurement": "Minimum Inhibitory Concentrations", "setting": "[3]", "value": ">100", "unit": "µg/mL"}, {"measurement": "Minimum Inhibitory Concentrations", "setting": "[4]; [9]", "value": ">100", "unit": "µg/mL"}, {"measurement": "Minimum Inhibitory Concentrations", "setting": "[5]; [10]", "value": 0.2, "unit": "µg/mL"}, {"measurement": "ED50", "setting": "[6]; Oral, mice infected with S. pyrogenes C203", "value": 12.5, "unit": "mg/kg x 2"}, {"measurement": "ED50", "setting": "[6]; Subcutaneous, mice infected with S. pyrogenes C203", "value": 2.5, "unit": "mg/kg x 2"}]}
{"molecule": "CC[C@H]1OC(=O)C[C@@H](O)[C@H](C)[C@@H](O[C@@H]2O[C@H](C)[C@@H](O[C@H]3C[C@@](C)(O)[C@@H](O)[C@H](C)O3)[C@H](N(C)C)[C@H]2O)[C@@H](CC=O)C[C@@H](C)C(=O)/C=C/C(C)=C/[C@@H]1CO[C@@H]1O[C@H](C)[C@@H](O)[C@@H](OC)[C@H]1OC", "note": "[Tyl, Tylosin]", "values": [{"measurement": "MIC", "setting": "[1]; Micrococcus luteus, ATCC9341, read-out: Minimum Inhibitory Concentrations", "value": 0.2, "unit": "µg/mL"}, {"measurement": "MIC", "setting": "[2]; Staphylococcus aureus", "value": 1.56, "unit": "µg/mL"}, {"measurement": "MIC", "setting": "[3]", "value": "> 100", "unit": "µg/mL"}, {"measurement": "MIC", "setting": "[4]; Klebsiella pneumoniae", "value": "> 100", "unit": "µg/mL"}, {"measurement": "MIC", "setting": "[5]; Bacillus subtilis, IFO3001, read-out: Minimum Inhibitory Concentrations", "value": 0.78, "unit": "µg/mL"}, {"measurement": "ED50", "setting": "[6]; Mus musculus, po", "value": 50, "unit": "mg/kg"}, {"measurement": "ED50", "setting": "[6]; Mus musculus, sc", "value": 1, "unit": "mg/kg"}]}
{"molecule": "CCC1OC(=O)CC(O)C(C)C(OC2OC(C)C(O)C(N(C)C)C2O)C(CC=O)CC(C)C(=O)C=CC(C)=CC1COC1OC(C)C(O)C(OC)C1OC", "note": "(stereo not drawn) [Detyl, Demycarosyltylosin, reference compound]", "values": [{"measurement": "MIC", "setting": "[1]; ATCC9341, Micrococcus luteus KB212 (ATCC 9341), nutrient agar, 37°C, 18-20 hours, read-out: Minimum Inhibitory Concentrations", "value": 0.2, "unit": "µg/mL"}, {"measurement": "MIC", "setting": "[2]; [8]", "value": 3.12, "unit": "µg/mL"}, {"measurement": "MIC", "setting": "[3]", "value": "> 100", "unit": "µg/mL"}, {"measurement": "MIC", "setting": "[4]; [9]", "value": 100, "unit": "µg/mL"}, {"measurement": "MIC", "setting": "[5]; IFO3001, Bacillus subtilis KB-143(IFO 3001), nutrient agar, 37°C, 18-20 hours, read-out: Minimum Inhibitory Concentrations", "value": 3.12, "unit": "µg/mL"}]}
{"molecule": "9-0-Benzoyl-9-dihydrodemycarosyltylosin [Example 8]", "values": [{"measurement": "Minimum Inhibitory Concentrations", "setting": "[1]; [7]", "value": 0.2, "unit": "µg/mL"}, {"measurement": "Minimum Inhibitory Concentrations", "setting": "[2]; [8]", "value": 1.56, "unit": "µg/mL"}, {"measurement": "Minimum Inhibitory Concentrations", "setting": "[3]", "value": ">100", "unit": "µg/mL"}, {"measurement": "Minimum Inhibitory Concentrations", "setting": "[4]; [9]", "value": ">100", "unit": "µg/mL"}, {"measurement": "Minimum Inhibitory Concentrations", "setting": "[5]; [10]", "value": 1.56, "unit": "µg/mL"}]}
{"molecule": "9-0-Butyryl-9-dihydrodemycarosyltylosin [Example 7]", "values": [{"measurement": "Minimum Inhibitory Concentrations", "setting": "[1]; [7]", "value": 0.2, "unit": "µg/mL"}, {"measurement": "Minimum Inhibitory Concentrations", "setting": "[2]; [8]", "value": 1.56, "unit": "µg/mL"}, {"measurement": "Minimum Inhibitory Concentrations", "setting": "[3]", "value": ">50", "unit": "µg/mL"}, {"measurement": "Minimum Inhibitory Concentrations", "setting": "[4]; [9]", "value": ">50", "unit": "µg/mL"}, {"measurement": "Minimum Inhibitory Concentrations", "setting": "[5]; [10]", "value": 1.56, "unit": "µg/mL"}]}
{"molecule": "9-0-Acetyl-9-dihydrodemycarosyltylosin [Example 5]", "values": [{"measurement": "Minimum Inhibitory Concentrations", "setting": "[1]; [7]", "value": 0.2, "unit": "µg/mL"}, {"measurement": "Minimum Inhibitory Concentrations", "setting": "[2]; [8]", "value": 1.56, "unit": "µg/mL"}, {"measurement": "Minimum Inhibitory Concentrations", "setting": "[3]", "value": ">50", "unit": "µg/mL"}, {"measurement": "Minimum Inhibitory Concentrations", "setting": "[4]; [9]", "value": ">50", "unit": "µg/mL"}, {"measurement": "Minimum Inhibitory Concentrations", "setting": "[5]; [10]", "value": 1.56, "unit": "µg/mL"}]}
